In patent publication US11292807B2 (OCEANS LTD., priority 2015, dated 2022):
Like-named read-outs stand apart in the source and are kept apart here.

What was measured:
[1] = test system: cancer cell lines; experiment: Anti-cancer screening of extracts, fractions and compounds (CIMA assay, bioassay-guided fractionation); format: cell-based, human; conditions: in vitro
Procedure: Lead crude extracts were fractionated into five fractions by C-18 SPE column separation using 15 ml each of 5% methanol (fraction 1), 25% methanol (fraction 2), 50% methanol (fraction 3), 100% methanol (fraction 4) and […] (fraction 5). Extracts were fractionated and the resulting fractions were evaluated using CIMA assay. Bio-assay guided fractionation provided detailed information regarding the compound(s) responsible for specific bioactivity.

[2] = test system: MDA-MB; conditions: MDA-MB
[3] = test system: MDA-MB; experiment: cells; conditions: Homo sapiens, read-out: Average cell viability, MDA-MB
[4] = in vitro; conditions: human, Average cell viability
[5] = test system: PC3; experiment: CIMA assay, cell viability, PC3; conditions: for Fold change in viability AVG: PC3
[6] = test system: U373 (glioblastoma-astrocytoma); experiment: CIMA assay, cell viability, U373; conditions: for Fold change in viability AVG: U373
[7] = test system: SKOV3 (ovarian adenocarcinoma); experiment: CIMA assay, cell viability, SKOV3; conditions: for Fold change in viability AVG: SKOV
[8] = test system: THP-1 (acute monocytic leukemia); experiment: CIMA assay, cell viability, THP-1; conditions: for Fold change in viability AVG: THP-1
Procedure: Stock solutions of the extracts were prepared in dimethylsulfoxide (DMSO) at 10 mg/mL and stored in 200 μl aliquots at −20° C. until analysis. This preparation ensured that the DMSO delivered to cells in culture never exceeded 1%.
Prepared extracts were assessed following chronic exposure conditions in which cells were seeded at 2×10^3 cells/well (96 well-plate) and incubated with test compounds for 72 h. Each compound was evaluated over a range of concentrations (0, 10, 25, 50 or 100 μg/ml). Cell proliferation was initially assessed using a standard colorimetric indicator of metabolic activity (CIMA) assay. In this assay, tetrazole reduction was evaluated as a measure of metabolic function that evaluates mitochondrial activity to determine the extent of cell proliferation within a culture. This assay is based on the reduction of yellow tetrazolium salt to purple formazan by mitochondrial reductases enzyme in viable cells, resulting in a color changed that confers a change in absorbance.

[9] = test system: CCD1079SK (fibroblast, noncancerous but proliferating); experiment: CIMA assay, cell viability, CCD1079SK; conditions: CCD
[10] = test system: A549 (lung carcinoma); experiment: CIMA assay (colorimetric indicator of metabolic activity), cell viability, A549; conditions: for Fold change in viability AVG: A549

CO[C@H]1CC(C)(C)C(/C=C/C(C)=C/C=C/C(C)=C/C=C/C=C(C)/C=C/C=C(C)/C=C/[C@H]2C(C)=C[C@@H](O)CC2(C)C)=C(C)C1=O [C]
anti-cancer activity (in words) [1]: anti-cancer activity

CC/C=C\C/C=C\C/C=C\CCCCCCCC(=O)O [Compound 19, α-linolenic acid]
MDA-MB AVG ([2]; sample at 1 ug/mL): 1.17
MDA-MB AVG ([2]; sample at 10 ug/mL): 1.18
MDA-MB AVG ([2]; sample at 50 ug/mL): 0.88
MDA-MB AVG ([2]; sample at 100 ug/mL): 0.26
Fold change in viability AVG ([2]; 1 ug/mL): 1.17
Fold change in viability AVG ([2]; 10 ug/mL): 1.18
Fold change in viability AVG ([2]; 50 ug/mL): 0.88
Fold change in viability AVG ([2]; 100 ug/mL): 0.26
viability at 1 µg/mL ([3]; 1 ug/mL): 108%
viability at 10 µg/mL ([3]; 10 ug/mL): 108%
viability at 50 µg/mL ([3]; 50 ug/mL): 81%
viability at 100 µg/mL ([3]; 100 ug/mL): 24%
viability at 72 h, 1 ug/mL [4]: 109%
viability at 72 h, 10 ug/mL [4]: 105%
viability at 72 h, 50 ug/mL [4]: 77%
viability at 72 h, 100 ug/mL [4]: 21%
viability at 1 µg/mL ([5]; Homo sapiens, PC-3, read-out: Average cell viability, PC3, 1 ug/mL): 105%
viability at 10 µg/mL ([5]; Homo sapiens, PC-3, read-out: Average cell viability, PC3, 10 ug/mL): 103%
viability at 50 µg/mL ([5]; Homo sapiens, PC-3, read-out: Average cell viability, PC3, 50 ug/mL): 88%
viability at 100 µg/mL ([5]; Homo sapiens, PC-3, read-out: Average cell viability, PC3, 100 ug/mL): 11%
PC3 AVG ([5]; PC3, sample at 1 ug/mL): 1.09
PC3 AVG ([5]; PC3, sample at 10 ug/mL): 1.07
PC3 AVG ([5]; PC3, sample at 50 ug/mL): 0.91
PC3 AVG ([5]; PC3, sample at 100 ug/mL): 0.12
Fold change in viability AVG ([5]; 1 ug/mL): 1.09
Fold change in viability AVG ([5]; 10 ug/mL): 1.07
Fold change in viability AVG ([5]; 50 ug/mL): 0.91
Fold change in viability AVG ([5]; 100 ug/mL): 0.12
viability at 1 µg/mL ([6]; Homo sapiens, U373 MG, read-out: Average cell viability, U373, 1 ug/mL): 116%
viability at 10 µg/mL ([6]; Homo sapiens, U373 MG, read-out: Average cell viability, U373, 10 ug/mL): 108%
viability at 50 µg/mL ([6]; Homo sapiens, U373 MG, read-out: Average cell viability, U373, 50 ug/mL): 57%
viability at 100 µg/mL ([6]; Homo sapiens, U373 MG, read-out: Average cell viability, U373, 100 ug/mL): 10%
U373 AVG ([6]; U373, sample at 1 ug/mL): 1.18
U373 AVG ([6]; U373, sample at 10 ug/mL): 1.10
U373 AVG ([6]; U373, sample at 50 ug/mL): 0.58
U373 AVG ([6]; U373, sample at 100 ug/mL): 0.10
Fold change in viability AVG ([6]; 1 ug/mL): 1.18
Fold change in viability AVG ([6]; 10 ug/mL): 1.10
Fold change in viability AVG ([6]; 50 ug/mL): 0.58
Fold change in viability AVG ([6]; 100 ug/mL): 0.10
viability at 1 µg/mL ([7]; Homo sapiens, SK-OV-3, read-out: Average cell viability, SKOV, 1 ug/mL): 117%
viability at 10 µg/mL ([7]; Homo sapiens, SK-OV-3, read-out: Average cell viability, SKOV, 10 ug/mL): 111%
viability at 50 µg/mL ([7]; Homo sapiens, SK-OV-3, read-out: Average cell viability, SKOV, 50 ug/mL): 101%
viability at 100 µg/mL ([7]; Homo sapiens, SK-OV-3, read-out: Average cell viability, SKOV, 100 ug/mL): 83%
Fold change in viability AVG ([7]; 1 ug/mL): 1.26
Fold change in viability AVG ([7]; 10 ug/mL): 1.20
Fold change in viability AVG ([7]; 50 ug/mL): 1.09
Fold change in viability AVG ([7]; 100 ug/mL): 0.90
viability at 1 µg/mL ([8]; Homo sapiens, THP-1, read-out: Average cell viability, THP-1, 1 ug/mL): 102%
viability at 10 µg/mL ([8]; Homo sapiens, THP-1, read-out: Average cell viability, THP-1, 10 ug/mL): 99%
viability at 50 µg/mL ([8]; Homo sapiens, THP-1, read-out: Average cell viability, THP-1, 50 ug/mL): 72%
viability at 100 µg/mL ([8]; Homo sapiens, THP-1, read-out: Average cell viability, THP-1, 100 ug/mL): 31%
THP-1 AVG ([8]; THP-1, sample at 1 ug/mL): 1.16
THP-1 AVG ([8]; THP-1, sample at 10 ug/mL): 1.12
THP-1 AVG ([8]; THP-1, sample at 50 ug/mL): 0.82
THP-1 AVG ([8]; THP-1, sample at 100 ug/mL): 0.35
Fold change in viability AVG ([8]; 1 ug/mL): 1.16
Fold change in viability AVG ([8]; 10 ug/mL): 1.12
Fold change in viability AVG ([8]; 50 ug/mL): 0.82
Fold change in viability AVG ([8]; 100 ug/mL): 0.35
Fold change in viability AVG ([9]; 1 ug/mL): 1.20
Fold change in viability AVG ([9]; 10 ug/mL): 1.16
Fold change in viability AVG ([9]; 50 ug/mL): 0.85
Fold change in viability AVG ([9]; 100 ug/mL): 0.23
A549 AVG ([10]; A549, sample at 1 ug/mL): 1.16
A549 AVG ([10]; A549, sample at 10 ug/mL): 1.16
A549 AVG ([10]; A549, sample at 50 ug/mL): 1.02
A549 AVG ([10]; A549, sample at 100 ug/mL): 0.67
Fold change in viability AVG ([10]; 1 ug/mL): 1.16
Fold change in viability AVG ([10]; 10 ug/mL): 1.16
Fold change in viability AVG ([10]; 50 ug/mL): 1.02
Fold change in viability AVG ([10]; 100 ug/mL): 0.67
viability at 1 µg/mL ([10]; Homo sapiens, A549, read-out: Average cell viability, A549, 1 ug/mL): 99%
viability at 10 µg/mL ([10]; Homo sapiens, A549, read-out: Average cell viability, A549, 10 ug/mL): 100%
viability at 50 µg/mL ([10]; Homo sapiens, A549, read-out: Average cell viability, A549, 50 ug/mL): 88%
viability at 100 µg/mL ([10]; Homo sapiens, A549, read-out: Average cell viability, A549, 100 ug/mL): 57%

CO[C@H]1CC(C)(C)C(/C=C/C(C)=C/C=C/C(C)=C/C=C/C=C(C)/C=C/C=C(C)/C=C/C2=C(C)C[C@@H](O)CC2(C)C)=C(C)C1=O [D]
anti-cancer activity (in words) [1]: anti-cancer activity
